{
  "source": "patent US4667030A",
  "about": "“Hydrazide succinimide derivatives of antineoplastic indole-dihydroindole alkaloids” (priority 1985, dated 1987)",
  "key": {"6C3HED lymphosarcoma": {"test_system": "6C3HED lymphosarcoma", "assay": "In vivo test, transplanted 6C3HED lymphosarcoma in mice", "details": "for activity against transplanted tumor: 6C3HED lymphosarcoma, mice; for % INHIBITION / In vivo test: Toxic: 6C3HED"}, "B-16 Sub.C. melanoma": {"test_system": "B-16 Sub.C. melanoma", "assay": "In vivo test, transplanted B-16 Sub.C. melanoma in mice", "details": "for activity against transplanted tumor: B-16 Sub.C. melanoma, mice"}, "C-26 colon carcinoma": {"test_system": "C-26 colon carcinoma", "assay": "In vivo test, transplanted C-26 colon carcinoma in mice", "details": "for activity against transplanted tumor: C-26 colon carcinoma, mice"}, "[1]": {"test_system": "X-5563 plasma cell myeloma", "assay": "In vivo test, transplanted X-5563 plasma cell myeloma in mice", "details": "for activity against transplanted tumor: X-5563 plasma cell myeloma, mice"}, "[2]": {"test_system": "CCRF-CEM, a human acute lymphoblastic leukemia cell line", "assay": "CCRF-CEM cytotoxicity screen (cytostatic activity)", "format": "cell-based", "details": "for IC50: Homo sapiens, read-out: IC50 (50% minimum inhibitory concentration)", "protocol": "The compounds of this invention have utility as anti-neoplastic compounds active against transplanted tumors in mice. They also have […]. As evidence of such utility, the cytostatic activity of the compounds was measured by standard procedures against CCRF-CEM, a human acute lymphoblastic leukemia cell line. In the table, column 1 gives the name of the compound, and column 2 the 50% minimum inhibitory concentration of the drug from column 1 in mcg./ml."}, "[3]": {"test_system": "vincristine-resistant leukemias", "details": "common neoplasms including germ-cell tumors; cited from earlier work"}},
  "note": "Structures can show the parent of a compound that is named as a salt.",
  "data": [
    {"compound": "CC[C@]1(O)C[C@@H]2CN(CCc3c([nH]c4ccccc34)[C@@](C(=O)OC)(c3cc4c(cc3OC)N(C)[C@H]3[C@@](O)(C(=O)NN5C(=O)CCCC5=O)[C@H](O)[C@]5(CC)C=CCN6CC[C@]43[C@@H]65)C2)C1", "note": "[4-desacetyl VLB 3-carboxhydrazide N^2-glutarimide]", "values": [
      {"measurement": "activity against transplanted tumor", "setting": "6C3HED lymphosarcoma", "value": "outstanding activity"},
      {"measurement": "activity against transplanted tumor", "setting": "B-16 Sub.C. melanoma", "value": "outstanding activity"},
      {"measurement": "activity against transplanted tumor", "setting": "C-26 colon carcinoma", "value": "outstanding activity"},
      {"measurement": "activity against transplanted tumor", "setting": "[1]", "value": "outstanding activity"}
    ]},
    {"compound": "VLB 3-carboxhydrazide N^2 --succinimide sulfate", "values": [
      {"measurement": "IC50 (50% minimum inhibitory concentration)", "setting": "[2]", "value": 0.01, "unit": "µg/mL"},
      {"measurement": "% INHIBITION", "setting": "6C3HED lymphosarcoma; i.v. x 1, 0.0625 mg/kg", "value": 11, "unit": "%"},
      {"measurement": "% INHIBITION", "setting": "6C3HED lymphosarcoma; i.v. x 1, 0.125 mg/kg", "value": 94, "unit": "%"},
      {"measurement": "% INHIBITION", "setting": "6C3HED lymphosarcoma; i.v. x 1, 0.25 mg/kg", "value": 100, "unit": "%"},
      {"measurement": "% INHIBITION", "setting": "6C3HED lymphosarcoma; i.v. x 1, 0.5 mg/kg", "value": 100, "unit": "%"},
      {"measurement": "% INHIBITION", "setting": "6C3HED lymphosarcoma; i.v. x 1, 1 mg/kg", "value": 100, "unit": "%"},
      {"measurement": "In vivo test: Toxic", "setting": "6C3HED lymphosarcoma; i.v. x 1, 2 mg/kg", "value": "Toxic"},
      {"measurement": "In vivo test: Toxic", "setting": "6C3HED lymphosarcoma; i.v. x 1, 4 mg/kg", "value": "Toxic"},
      {"measurement": "% INHIBITION", "setting": "B-16 Sub.C. melanoma; B-16 Sub. C., i.v. 1 & 7, dose 0.5", "value": 51, "unit": "%"},
      {"measurement": "% INHIBITION", "setting": "B-16 Sub.C. melanoma; B-16 Sub. C., i.v. 1 & 7, dose 1", "value": 82, "unit": "%"},
      {"measurement": "% INHIBITION", "setting": "B-16 Sub.C. melanoma; B-16 Sub. C., i.v. 1 & 7, dose 2", "value": 91, "unit": "%"},
      {"measurement": "In vivo test: Toxic", "setting": "B-16 Sub.C. melanoma; B-16 Sub. C., i.v. 1 & 7, dose 4", "value": "Toxic"},
      {"measurement": "% INHIBITION", "setting": "B-16 Sub.C. melanoma; B-16 Sub. C., i.v. 1 & 7, dose 25 (so in the source)", "value": 8, "unit": "%"},
      {"measurement": "% INHIBITION", "setting": "C-26 colon carcinoma; C-26, i.v. 1 & 7, dose 0.25", "value": 0, "unit": "%"},
      {"measurement": "% INHIBITION", "setting": "C-26 colon carcinoma; C-26, i.v. 1 & 7, dose 0.5", "value": 0, "unit": "%"},
      {"measurement": "% INHIBITION", "setting": "C-26 colon carcinoma; C-26, i.v. 1 & 7, dose 1", "value": 50, "unit": "%"},
      {"measurement": "% INHIBITION", "setting": "C-26 colon carcinoma; C-26, i.v. 1 & 7, dose 2", "value": 73, "unit": "%"},
      {"measurement": "In vivo test: Toxic", "setting": "C-26 colon carcinoma; C-26, i.v. 1 & 7, dose 4", "value": "Toxic"},
      {"measurement": "% INHIBITION", "setting": "[1]; X5563, i.v. 1 & 7, dose 0.25", "value": 25, "unit": "%"},
      {"measurement": "% INHIBITION", "setting": "[1]; X5563, i.v. 1 & 7, dose 0.5", "value": 30, "unit": "%"},
      {"measurement": "% INHIBITION", "setting": "[1]; X5563, i.v. 1 & 7, dose 1", "value": 59, "unit": "%"},
      {"measurement": "% INHIBITION", "setting": "[1]; X5563, i.v. 1 & 7, dose 2", "value": 94, "unit": "%"},
      {"measurement": "In vivo test: Toxic", "setting": "[1]; X5563, i.v. 1 & 7, dose 4", "value": "Toxic"}
    ]},
    {"compound": "CC[C@]1(O)C[C@@H]2CN(CCc3c([nH]c4ccccc34)[C@@](C(=O)OC)(c3cc4c(cc3OC)N(C)[C@H]3[C@@](O)(C(=O)NN5C(=O)CCC5=O)[C@H](O)[C@]5(CC)C=CCN6CC[C@]43[C@@H]65)C2)C1", "note": "[4-desacetyl VLB 3-carboxhydrazide N^2-succinimide]", "values": [
      {"measurement": "activity against transplanted tumor", "setting": "6C3HED lymphosarcoma", "value": "outstanding activity"},
      {"measurement": "activity against transplanted tumor", "setting": "B-16 Sub.C. melanoma", "value": "outstanding activity"},
      {"measurement": "activity against transplanted tumor", "setting": "C-26 colon carcinoma", "value": "outstanding activity"},
      {"measurement": "activity against transplanted tumor", "setting": "[1]", "value": "outstanding activity"}
    ]},
    {"compound": "CC[C@]1(O)C[C@@H]2CN(CCc3c([nH]c4ccccc34)[C@@](C(=O)OC)(c3cc4c(cc3OC)N(C)[C@H]3[C@@](O)(C(=O)NN5C(=O)CCC5=O)[C@H](OC(=O)CCC(=O)O)[C@]5(CC)C=CCN6CC[C@]43[C@@H]65)C2)C1", "note": "[4-Succinoyl VLB 3-carboxhydrazide N^2-succinimide]", "values": [
      {"measurement": "IC50", "setting": "[2]", "value": 0.5, "unit": "µg/mL"}
    ]},
    {"compound": "CC[C@]1(O)C[C@@H]2CN(CCc3c([nH]c4ccccc34)[C@@](C(=O)OC)(c3cc4c(cc3OC)N(C)[C@H]3[C@@](O)(C(=O)NN5C(=O)CCCC5=O)[C@H](O)[C@]5(CC)C=CCN6CC[C@]43[C@@H]65)C2)C1", "note": "[4-Desacetyl VLB Hydrazide N^2 --Glutarimide Sulfate]", "values": [
      {"measurement": "% INHIBITION", "setting": "6C3HED lymphosarcoma; i.v. x 1, 0.0625 mg/kg", "value": 79, "unit": "%"},
      {"measurement": "% INHIBITION", "setting": "6C3HED lymphosarcoma; i.v. x 1, 0.125 mg/kg", "value": 80, "unit": "%"},
      {"measurement": "% INHIBITION", "setting": "6C3HED lymphosarcoma; i.v. x 1, 0.25 mg/kg", "value": 100, "unit": "%"},
      {"measurement": "% INHIBITION", "setting": "6C3HED lymphosarcoma; i.v. x 1, 0.5 mg/kg", "value": 100, "unit": "%"},
      {"measurement": "% INHIBITION", "setting": "6C3HED lymphosarcoma; i.v. x 1, 1 mg/kg", "value": 100, "unit": "%"},
      {"measurement": "In vivo test: Toxic", "setting": "6C3HED lymphosarcoma; i.v. x 1, 2 mg/kg", "value": "Toxic"},
      {"measurement": "In vivo test: Toxic", "setting": "6C3HED lymphosarcoma; i.v. x 1, 4 mg/kg", "value": "Toxic"},
      {"measurement": "In vivo test: Toxic", "setting": "6C3HED lymphosarcoma; i.v. x 1, 8 mg/kg", "value": "Toxic"}
    ]},
    {"compound": "CC[C@]1(O)C[C@@H]2CN(CCc3c([nH]c4ccccc34)[C@@](C(=O)OC)(c3cc4c(cc3OC)N(C)[C@H]3[C@@](O)(C(=O)NN5C(=O)CCC5=O)[C@H](O)[C@]5(CC)C=CCN6CC[C@]43[C@@H]65)C2)C1", "note": "[4-Desacetyl VLB 3-carboxhydrazide N^2 --succinimide sulfate]", "values": [
      {"measurement": "IC50", "setting": "[2]", "value": 0.02, "unit": "µg/mL"},
      {"measurement": "% INHIBITION", "setting": "6C3HED lymphosarcoma; i.v. x 1, 1.25 mg/kg", "value": 100, "unit": "%"},
      {"measurement": "% INHIBITION", "setting": "6C3HED lymphosarcoma; i.v. x 1, 2.5 mg/kg", "value": 100, "unit": "%"},
      {"measurement": "In vivo test: Toxic", "setting": "6C3HED lymphosarcoma; i.v. x 1, 5 mg/kg", "value": "Toxic"}
    ]},
    {"compound": "CCC(=O)O[C@@H]1[C@]2(CC)C=CCN3CC[C@@]4(c5cc([C@@]6(C(=O)OC)C[C@H]7CN(CCc8c6[nH]c6ccccc86)C[C@](O)(CC)C7)c(OC)cc5N(C)[C@H]4[C@@]1(O)C(=O)NN1C(=O)CCC1=O)[C@@H]32", "note": "[4-Propionyl VLB 3-carboxhydrazide N^2 --succinimide sulfate]", "values": [
      {"measurement": "IC50", "setting": "[2]", "value": 0.01, "unit": "µg/mL"},
      {"measurement": "% INHIBITION", "setting": "6C3HED lymphosarcoma; i.v. x 1, 1.25 mg/kg", "value": 100, "unit": "%"},
      {"measurement": "% INHIBITION", "setting": "6C3HED lymphosarcoma; i.v. x 1, 2.5 mg/kg", "value": 100, "unit": "%"},
      {"measurement": "In vivo test: Toxic", "setting": "6C3HED lymphosarcoma; i.v. x 1, 5 mg/kg", "value": "Toxic"}
    ]},
    {"compound": "CC[C@H]1C[C@@H]2CN(CCc3c([nH]c4ccccc34)[C@@](C(=O)OC)(c3cc4c(cc3OC)N(C)[C@H]3[C@@](O)(C(=O)NN5C(=O)CCC5=O)[C@H](O)[C@]5(CC)C=CCN6CC[C@]43[C@@H]65)C2)C1", "note": "[4'-deoxy-4-desacetylleurosidine 3-carboxhydrazide N^2-succinimide sulfate]", "values": [
      {"measurement": "IC50", "setting": "[2]", "value": 0.075, "unit": "µg/mL"}
    ]},
    {"compound": "CC[C@]1(O)C[C@@H]2CN(CCc3c([nH]c4ccccc34)[C@@](C(=O)OC)(c3cc4c(cc3OC)N(C)[C@H]3[C@@](O)(C(N)=O)[C@H](O)[C@]5(CC)C=CCN6CC[C@]43[C@@H]65)C2)C1", "note": "[vindesine, 4-desacetyl VLB 3-carboxamide]", "values": [
      {"measurement": "effectiveness in treating leukemias and neoplasms", "setting": "[3]", "value": "effective in treating some vincristine-resistant leukemias in addition to many common neoplasms including germ-cell tumors"}
    ]}
  ]
}
